Test results from patent US4564621A, “α-Aryl-α-pyridylalkanoic acid derivatives, process for preparation thereof and pharmaceutical composition comprising the same” (Fujisawa Pharmaceutical Co., Ltd., priority 1982, dated 1986).
Where two headings read alike, the source gives them in different places.

Tests used:
gastric antrum = test: Spasmolytic activity in vivo: spontaneous contraction of the gastric antrum; set-up: species or system Mongrel dogs; conditions: dogs
Description: (§1) Spasmolytic activity in vivo
(§2) Mongrel dogs were anesthetized with s.c. injection of morphine chloride (10 mg/kg) and urethane (1.5 g/kg). The abdomen was incised along the midline, and a ballon filled with water was introduced into the gastric antrum or jejunum. The spontaneous contraction of the gastric antrum and jejunum were continuously recorded through the balloon connected to a pressure transducer. The test drugs were given intravenously. The effect of the test drug is expressed as inhibitory percentage compared to the contractile magnitude obtained before the test drug. The blood pressure was also monitored with a pressure transducer through a cannula inserted in the femoral artery.

[1] = Blood pressure monitored in spasmolytic activity test (cannula in femoral artery); type: in vivo, Mongrel dogs; conditions: dogs
Description: as §1, §2

stress ulcer = test: Test B: Inhibition on stress ulcer; type: in vivo, male Sprague-Dawley rats; conditions: for ED50: Rattus norvegicus, read-out: ED50 (Test B, stress ulcer)
Description: Inhibition on stress ulcer
Five male Sprague-Dawley rats, aged 7 weeks and weighing about 200 g were used per group for the study on stress ulcer after the fast for 24 hours. Each animal was immobilized in a restrain cage and immersed to a level of the xiphoid in a water bath kept 22° C. The test compound suspended in 0.1% methylcellulose solution was administered orally (5 ml/kg) just before the immobilization. Seven hours later, the animals were sacrificed and their stomachs were removed. The stomach was then fixed with 2% formalin. The area of ulcers was measured for each animal. The mean area (mm^2) in the test animals was compared with that in the control animals.

jejunum = test: Spasmolytic activity in vivo: spontaneous contraction of the jejunum; set-up: species or system Mongrel dogs; conditions: dogs
Description: as §1, §2

ethanol ulcer = test: Test C: Inhibition on ethanol ulcer; type: in vivo, male Sprague-Dawley rats; conditions: Rattus norvegicus, 0.5 h; oral; rats; absolute ethanol 5 ml/kg 30 minutes after dosing
Description: Inhibition on ethanol ulcer
Five male Sprague-Dawley rats, aged 7 weeks and weighing about 200 g, were used per group for the study on ethanol ulcer after the fast for 24 hours.
Test compound was suspended in 0.1% methylcellulose aqueous solution, and the suspension (5 ml/kg) was orally given to each rat.
The control group was given a vehicle, i.e. 0.1% methylcellulose aqueous solution (5 ml/kg), alone in the same way.
Absolute ethanol (5 ml/kg) was orally administered 30 minutes after dosing with test compound, and one hour later, the rats were sacrificed and their stomachs were removed. The area of ulcers of each rat was measured. The mean area (mm^2) in the medicated group was compared with that in the control group.

gastric secretion = test: Test A: Gastric secretion in Heidenhain pouch dogs (tetragastrin-stimulated total acid output); type: in vivo, Beagle dogs; conditions: Canis lupus familiaris, intravenous, tetragastrin 10 μg/kg/hr
Description: Gastric secretion in Heidenhain pouch dogs
Beagle dogs, weighing about 8-13 kg, were used for the study on gastric secretion. The animals were surgically provided with a vagally denervated Heidenhain pouch. One month or more later, the dogs were fasted overnight. Gastric secretion was stimulated by an intravenous infusion of tetragastrin (10 μg/kg/hr). Gastric samples were collected at 15 min intervals. After its volume was almost constant, test compound suspended in 0.1% methyl cellulose solution was injected intravenously (0.2 ml/kg). Acid concentration was determined by titrating an aliquot to pH 7.0 with 0.1N sodium hydroxide solution using automatic titration (Hiranuma RAT-11 Type). Total acid output was calculated by multiplying total volume of gastric samples by acid concentration, and percentage change of total acid output was calculated by comparing with predosing value of test compound.

[2] = British Pat. No. 666,778; cited from earlier work
[3] = oral, rats, restraint and water immersion 22° C., 7 hours

CC(C)N(CCC(C(N)=O)(c1ccccc1)c1ccccn1)C(C)C (stereo not drawn) [Disopyramide phosphate, α-phenyl-α-(2-pyridyl)-4-(N,N-diisopropylamino)butyramide]
Duration (gastric antrum) (gastric antrum; 100 μg/Kg intravenous): 10 min
Inh. (gastric antrum) (gastric antrum; 100 μg/Kg intravenous): 46%
Duration (gastric antrum) (gastric antrum; 1000 μg/Kg intravenous): 60 min
Inh. (gastric antrum) (gastric antrum; 1000 μg/Kg intravenous): 88%
Blood pressure change (gastric antrum) ([1]; 100 μg/Kg intravenous): +3%
Blood pressure change (gastric antrum) ([1]; 1000 μg/Kg intravenous): +5%
Blood pressure change (jejunum) ([1]; 100 μg/Kg intravenous): +1%
Blood pressure change (jejunum) ([1]; 1000 μg/Kg intravenous): +14%
ED50 (Test B, stress ulcer) (stress ulcer; [3]): No Effect
Duration (jejunum) (jejunum; 100 μg/Kg intravenous): 0 min
Inh. (jejunum) (jejunum; 100 μg/Kg intravenous): 4%
Duration (jejunum) (jejunum; 1000 μg/Kg intravenous): > 60 min
Inh. (jejunum) (jejunum; 1000 μg/Kg intravenous): 85%

CC(CC(C(N)=O)(c1ccccc1)c1ccccn1)N(C)C (centres unmarked) [Example 3, 4-(N,N-dimethylamino)-2-phenyl-2-(2-pyridyl)-valeramide]
ED50 (ethanol ulcer): 6.8 mg/kg
Duration (gastric antrum) (gastric antrum; 10 μg/Kg intravenous): 60 min
Inh. (gastric antrum) (gastric antrum; 10 μg/Kg intravenous): 52%
Duration (gastric antrum) (gastric antrum; 100 μg/Kg intravenous): 90 min
Inh. (gastric antrum) (gastric antrum; 100 μg/Kg intravenous): 95%
Blood pressure change (gastric antrum) ([1]; 10 μg/Kg intravenous): -3%
Blood pressure change (gastric antrum) ([1]; 100 μg/Kg intravenous): -4%
Blood pressure change (jejunum) ([1]; 10 μg/Kg intravenous): -3%
Blood pressure change (jejunum) ([1]; 100 μg/Kg intravenous): -7%
ED50 (gastric secretion): 0.27 mg/kg
ED50 (stress ulcer; po, 7 h): 2.7 mg/kg
Duration (jejunum) (jejunum; 10 μg/Kg intravenous): 30 min
Inh. (jejunum) (jejunum; 10 μg/Kg intravenous): 70%
Duration (jejunum) (jejunum; 100 μg/Kg intravenous): > 60 min
Inh. (jejunum) (jejunum; 100 μg/Kg intravenous): 93%

CN1CCN(CC(=O)N2c3ccccc3C(=O)Nc3cccnc32)CC1 [Gastrozepine]
ED50 (ethanol ulcer): 14.4 mg/kg
ED50 (gastric secretion): 0.03 mg/kg
ED50 (stress ulcer; [3]): 36 mg/kg

COC1CC(=C(c2cccs2)c2cccs2)C[N+](C)(C)C1 (centres unmarked) [Timepidium Bromide]
Duration (gastric antrum) (gastric antrum; 10 μg/Kg intravenous): 10 min
Inh. (gastric antrum) (gastric antrum; 10 μg/Kg intravenous): 55%
Duration (gastric antrum) (gastric antrum; 100 μg/Kg intravenous): 30 min
Inh. (gastric antrum) (gastric antrum; 100 μg/Kg intravenous): 92%
Blood pressure change (gastric antrum) ([1]; 10 μg/Kg intravenous): +4%
Blood pressure change (gastric antrum) ([1]; 100 μg/Kg intravenous): -19%
Blood pressure change (jejunum) ([1]; 10 μg/Kg intravenous): -3%
Blood pressure change (jejunum) ([1]; 100 μg/Kg intravenous): -24%
Duration (jejunum) (jejunum; 10 μg/Kg intravenous): 30 min
Inh. (jejunum) (jejunum; 10 μg/Kg intravenous): 59%
Duration (jejunum) (jejunum; 100 μg/Kg intravenous): > 60 min
Inh. (jejunum) (jejunum; 100 μg/Kg intravenous): 91%

CC(CN(C)C)C(C#N)(c1ccccc1)c1ccccn1 (stereo not drawn) [α-phenyl-α-(2-pyridyl)-4-(N,N-dimethylamino)-3-methylbutyronitrile]
antihistaminic activity [2]: possesses antihistaminic activity
